Where a name gives a salt, the structure may show the parent alone.
These compounds were tested against T1, human HSL (Homo sapiens, UniProt Q05469) (assay: Human Hormone-Sensitive Lipase (HSL) enzyme inhibition assay (colorimetric, DMPT substrate)). Conditions: read-out: HSL hum IC50.
T1 construct: generate a full length human HSL ORF with a 3′-His6 tag; His6 (C); made in house; host or cells: High 5 insect cells (baculovirus, pFast-BAC)
T1 sequence (Q05469 1-1076): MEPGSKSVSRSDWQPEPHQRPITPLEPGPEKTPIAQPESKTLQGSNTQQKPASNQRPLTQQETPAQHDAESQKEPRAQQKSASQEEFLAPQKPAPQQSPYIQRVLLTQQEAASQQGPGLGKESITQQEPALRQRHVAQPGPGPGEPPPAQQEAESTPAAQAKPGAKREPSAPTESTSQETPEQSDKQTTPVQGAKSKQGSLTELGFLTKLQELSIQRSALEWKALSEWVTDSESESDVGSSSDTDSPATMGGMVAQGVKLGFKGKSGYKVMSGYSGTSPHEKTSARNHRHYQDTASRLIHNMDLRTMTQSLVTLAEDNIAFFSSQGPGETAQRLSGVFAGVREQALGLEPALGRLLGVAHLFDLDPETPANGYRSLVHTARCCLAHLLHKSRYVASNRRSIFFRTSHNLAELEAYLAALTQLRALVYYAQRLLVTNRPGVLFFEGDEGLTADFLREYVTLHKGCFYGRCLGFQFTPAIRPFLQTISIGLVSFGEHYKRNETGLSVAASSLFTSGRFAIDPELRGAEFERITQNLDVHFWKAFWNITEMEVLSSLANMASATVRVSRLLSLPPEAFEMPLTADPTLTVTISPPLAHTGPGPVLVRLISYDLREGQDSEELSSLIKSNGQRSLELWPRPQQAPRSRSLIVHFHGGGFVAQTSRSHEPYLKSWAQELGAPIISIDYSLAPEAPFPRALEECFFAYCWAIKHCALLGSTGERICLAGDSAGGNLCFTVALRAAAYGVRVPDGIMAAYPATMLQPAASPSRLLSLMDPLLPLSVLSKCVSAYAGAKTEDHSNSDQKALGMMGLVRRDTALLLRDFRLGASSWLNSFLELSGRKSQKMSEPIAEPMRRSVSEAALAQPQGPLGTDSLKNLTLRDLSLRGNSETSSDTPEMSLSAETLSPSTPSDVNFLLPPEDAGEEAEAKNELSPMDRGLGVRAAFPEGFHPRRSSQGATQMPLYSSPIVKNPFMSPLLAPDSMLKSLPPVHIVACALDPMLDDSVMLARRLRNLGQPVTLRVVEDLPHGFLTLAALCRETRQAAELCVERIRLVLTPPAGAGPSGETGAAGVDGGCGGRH
Type: biochemical
In short: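 Full-length human HSL carrying a C-terminal His6 tag was expressed in High 5 insect cells via baculovirus and purified on Ni-NTA. Compounds from 3-fold DMSO series were mixed with 1.5 mM DMPT substrate suspension in 100 mM MOPS pH 7.2 with 0.2 mg/ml fatty acid-free BSA, then enzyme (15 ug/ml) was added for 20 minutes at 37 °C. Released thiol was detected with DTNB plus SDS/Triton X-100 (15 minutes, room temperature) at 405 nm.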

| SMILES | IC50 [nM] |
| --- | --- |
| CC(C)c1ccc(NC(=O)C2(N)CCN(C(=O)Nc3ccc(Cl)cc3)CC2)cc1 [Example 108, 4-Amino-piperidine-1,4-dicarboxylic acid 1-[(4-chloro-phenyl)-amide] 4-[(4-isopropyl-phenyl)-amide]; hydrochloride] | 100 |
| CC(C)c1ccc(NC(=O)C2(N)CCN(C(=O)Nc3ccc(C(C)(C)C)cc3)CC2)cc1 [Example 89, 4-Amino-piperidine-1,4-dicarboxylic acid 1-[(4-tert-butyl-phenyl)-amide]-4-[(4-isopropyl-phenyl)-amide]; hydrochloride] | 120 |
| O=C(Nc1ccc(OC(F)(F)F)cc1)C1(O)CCN(S(=O)(=O)CCC(F)(F)F)CC1 [Example 62, 4-Hydroxy-1-(3,3,3-trifluoro-propane-1-sulfonyl)-piperidine-4-carboxylic acid (4-trifluoromethoxy-phenyl)-amide] | 870 |
| CC(C)(C)c1ccc(NC(=O)C2(O)CCN(Cc3ccccc3F)CC2)cc1 [Example 45, 1-(2-Fluoro-benzyl)-4-hydroxy-piperidine-4-carboxylic acid (4-tert-butyl-phenyl)-amide] | 80 |
| Cc1ccc(S(=O)(=O)N2CCC(O)(C(=O)Nc3ccc(OC(C)C)cc3)CC2)cc1 [Example 12, 4-Hydroxy-1-(toluene-4-sulfonyl)-piperidine-4-carboxylic acid (4-isopropoxy-phenyl)-amide] | 860 |
| CCc1cccc(NC(=O)C2(N)CCN(S(=O)(=O)c3ccccc3Cl)CC2)c1 [Example 92, 4-Amino-1-(2-chloro-benzenesulfonyl)-piperidine-4-carboxylic acid (3-ethyl-phenyl)-amide] | 860 |
| CC(C)(C)c1ccc(NC(=O)C2(O)CCN(Cc3ccc(C(F)(F)F)cc3)CC2)cc1 [Example 20, 4-Hydroxy-1-(4-trifluoromethyl-benzyl)-piperidine-4-carboxylic acid (4-tert-butyl-phenyl)-amide] | 320 |
| O=C(Nc1ccc(OC(F)(F)F)cc1)C1(O)CCN(S(=O)(=O)c2cccs2)CC1 [Example 57, 4-Hydroxy-1-(thiophene-2-sulfonyl)-piperidine-4-carboxylic acid (4-trifluoromethoxy-phenyl)-amide] | 330 |
| Cc1ccc(S(=O)(=O)N2CCC(N)(C(=O)Nc3ccc(C(C)(C)C)cc3)CC2)cc1 [Example 77, 4-Amino-1-(toluene-4-sulfonyl)-piperidine-4-carboxylic acid (4-tert-butyl-phenyl)-amide; hydrochloride] | 50 |
| NC1(C(=O)Nc2ccc(OC(F)F)cc2)CCN(S(=O)(=O)c2ccccc2Cl)CC1 [Example 97, 4-Amino-1-(2-chloro-benzenesulfonyl)-piperidine-4-carboxylic acid (4-difluoromethoxy-phenyl)-amide] | 90 |
| CC(C)c1ccc(NC(=O)C2(N)CCN(S(=O)(=O)c3ccccc3Cl)CC2)cn1 [Example 101, 4-Amino-1-(2-chloro-benzenesulfonyl)-piperidine-4-carboxylic acid (6-isopropyl-pyridin-3-yl)-amide] | 190 |
| CC(C)Oc1ccc(NC(=O)C2(N)CCN(S(=O)(=O)c3ccccc3Cl)CC2)cc1 [Example 96, 4-Amino-1-(2-chloro-benzenesulfonyl)-piperidine-4-carboxylic acid (4-isopropoxy-phenyl)-amide] | 50 |
| CC(C)CS(=O)(=O)N1CCC(O)(C(=O)Nc2ccc(OC(F)(F)F)cc2)CC1 [Example 54, 4-Hydroxy-1-(2-methyl-propane-1-sulfonyl)-piperidine-4-carboxylic acid (4-trifluoromethoxy-phenyl)-amide] | 660 |
| CN(C(=O)C1(O)CCN(S(=O)(=O)c2cccs2)CC1)c1ccc(OC(F)(F)F)cc1 [Example 66, 4-Hydroxy-1-(thiophene-2-sulfonyl)-piperidine-4-carboxylic acid methyl-(4-trifluoromethoxy-phenyl)-amide] | 200 |
| CC(C)(C)c1ccc(NC(=O)C2(O)CCN(Cc3ccccc3C(F)(F)F)CC2)cc1 [Example 47, 4-Hydroxy-1-(2-trifluoromethyl-benzyl)-piperidine-4-carboxylic acid (4-tert-butyl-phenyl)-amide] | 230 |
| COc1ccc(S(=O)(=O)N2CCC(O)(C(=O)Nc3ccc(C(C)C)cc3)CC2)cc1 [Example 8, 4-Hydroxy-1-(4-methoxy-benzenesulfonyl)-piperidine-4-carboxylic acid (4-isopropyl-phenyl)-amide] | 200 |
| CCCc1ccc(NC(=O)C2(N)CCN(S(=O)(=O)c3ccccc3Cl)CC2)cc1 [Example 98, 4-Amino-1-(2-chloro-benzenesulfonyl)-piperidine-4-carboxylic acid (4-propyl-phenyl)-amide] | 70 |
| CC(C)c1ccc(NC(=O)C2(O)CCN(Cc3ccccc3)CC2)cc1 [Example 1, 1-Benzyl-4-hydroxy-piperidine-4-carboxylic acid (4-isopropyl-phenyl)-amide] | 460 |
| Cc1ccc(S(=O)(=O)N2CCC(N)(C(=O)Nc3ccc(OC(C)C)cc3)CC2)cc1 [Example 79, 4-Amino-1-(toluene-4-sulfonyl)-piperidine-4-carboxylic acid (4-isopropoxy-phenyl)-amide; hydrochloride] | 130 |

Other lines, results leading:

| IC50 [nM] | SMILES |
| --- | --- |
| 230 | CC(C)c1ccc(CN2CCC(N)(C(=O)Nc3ccc(C(C)C)cc3)CC2)cc1 [Example 115, 4-Amino-1-(4-isopropyl-benzyl)-piperidine-4-carboxylic acid (4-isopropyl-phenyl)-amide; hydrochloride] |
| 160 | CC(C)c1ccc(NC(=O)C2(N)CCN(Cc3ccc(F)cc3)CC2)cc1 [Example 121, 4-Amino-1-(4-fluoro-benzyl)-piperidine-4-carboxylic acid (4-isopropyl-phenyl)-amide; hydrochloride] |
| 180 | CCc1ccc(NC(=O)C2(N)CCN(Cc3ccccc3C(F)(F)F)CC2)cc1 [Example 157, 4-Amino-1-(2-trifluoromethyl-benzyl)-piperidine-4-carboxylic acid (4-ethyl-phenyl)-amide] |
| 250 | CC(C)c1ccc(NC(=O)C2(N)CCN(C(=O)c3ccc(C(F)(F)F)cc3)CC2)cc1 [Example 126, 4-Amino-1-(4-trifluoromethyl-benzoyl)-piperidine-4-carboxylic acid (4-isopropyl-phenyl)-amide] |
| 80 | CC(C)c1ccc(NC(=O)C2(N)CCN(Cc3ccccc3Cl)CC2)cc1 [Example 110, 4-Amino-1-(2-chloro-benzyl)-piperidine-4-carboxylic acid (4-isopropyl-phenyl)-amide; hydrochloride] |
| 120 | CCc1ccc(NC(=O)C2(N)CCN(S(=O)(=O)c3ccc(F)cc3Cl)CC2)cc1 [Example 146, 4-Amino-1-(2-chloro-4-fluoro-benzenesulfonyl)-piperidine-4-carboxylic acid (4-ethyl-phenyl)-amide] |
| 230 | CC(C)c1ccc(NC(=O)C2(N)CCN(C(=O)c3ccccc3Cl)CC2)cc1 [Example 124, 4-Amino-1-(2-chloro-benzoyl)-piperidine-4-carboxylic acid (4-isopropyl-phenyl)-amide] |
| 120 | CCc1ccc(NC(=O)C2(N)CCN(Cc3ccccc3C)CC2)cc1 [Example 152, 4-Amino-1-(2-methyl-benzyl)-piperidine-4-carboxylic acid (4-ethyl-phenyl)-amide] |
| 230 | CC(C)CS(=O)(=O)N1CCC(N)(C(=O)Nc2ccc(C(C)C)cc2)CC1 [Example 120, 4-Amino-1-(2-methyl-propane-1-sulfonyl)-piperidine-4-carboxylic acid (4-isopropyl-phenyl)-amide; hydrochloride] |
| 500 | CC(C)c1ccc(NC(=O)C2(N)CCN(S(=O)(=O)c3ccc(C(F)(F)F)cc3Cl)CC2)cc1 [Example 131, 4-Amino-1-(2-chloro-4-trifluoromethyl-benzenesulfonyl)-piperidine-4-carboxylic acid (4-isopropyl-phenyl)-amide] |
| 100 | CNC1(C(=O)Nc2ccc(OC(F)(F)F)cc2)CCN(S(=O)(=O)c2ccc(C)cc2)CC1 [Example 160, 4-Methylamino-1-(toluene-4-sulfonyl)-piperidine-4-carboxylic acid (4-trifluoromethoxy-phenyl)-amide] |

Reference: patent publication US8399676B2, “Piperidine derivatives” (Hoffman-La Roche Inc., priority 2009, dated 2013)
